Peptide text beside a SMILES is read from it.

The assay in a line: Bradykinin potentiating activity was determined as the activity index by PLS model.

For the molecule `C[C@H](N)C(=O)N[C@@H](C)C(=O)N[C@@H](C)C(=O)N[C@@H](C)C(=O)N[C@@H](C)C(=O)O`, the Log RAI is -0.1.

As for `C[C@H](N)C(=O)N[C@@H](C)C(=O)N[C@@H](Cc1ccc(O)cc1)C(=O)N[C@@H](C)C(=O)N[C@@H](C)C(=O)O`, the Log RAI amounted to 0.46. `C[C@H](N)C(=O)N[C@@H](C)C(=O)N[C@@H](Cc1c[nH]c2ccccc12)C(=O)N[C@@H](C)C(=O)N[C@@H](C)C(=O)O` (H-AAWAA-OH): the Log RAI stood at 0.75. With `C[C@H](NC(=O)[C@H](Cc1c[nH]c2ccccc12)NC(=O)[C@H](CCCCN)NC(=O)[C@@H](N)CCC(=O)O)C(=O)N1CCC[C@H]1C(=O)O` (H-EKWAP-OH) the figure was 1.3; with `C[C@H](NC(=O)[C@H](C)NC(=O)[C@H](CCC(=O)O)NC(=O)[C@@H](N)Cc1ccccc1)C(=O)N[C@@H](CCCCN)C(=O)O` (H-FEAAK-OH), 0.3. Consider `NC(N)=NCCC[C@H](NC(=O)[C@H](Cc1ccccc1)NC(=O)[C@@H]1CCCN1C(=O)[C@H](CO)NC(=O)[C@@H](N)Cc1ccccc1)C(=O)O` (H-FSPFR-OH), for which the Log RAI came to 0.64. With `C[C@H](NC(=O)[C@H](C)NC(=O)[C@H](CCC(=O)O)NC(=O)CN)C(=O)N[C@@H](CCCCN)C(=O)O` (H-GEAAK-OH), the Log RAI is -0.52. Turning to `CC(C)C[C@H](N)C(=O)N[C@@H](CCC(=O)O)C(=O)N[C@@H](C)C(=O)N[C@@H](C)C(=O)N[C@@H](CCCCN)C(=O)O` (H-LEAAK-OH), the Log RAI was determined as 0.4. On to `O=C(CNC(=O)[C@@H]1CCCN1)N[C@@H](Cc1ccccc1)C(=O)N[C@@H](CO)C(=O)N1CCC[C@H]1C(=O)O` (H-PGFSP-OH), for which the Log RAI was found to be 0.9.

As for `C[C@H](NC(=O)[C@H](Cc1c[nH]c2ccccc12)NC(=O)[C@H](CCCCN)NC(=O)[C@@H](N)CCCN=C(N)N)C(=O)N1CCC[C@H]1C(=O)O` (H-RKWAP-OH), the Log RAI worked out at 1.98.

`CC(C)[C@H](N)C(=O)N[C@@H](C)C(=O)N[C@@H](C)C(=O)N[C@@H](C)C(=O)N[C@@H](CCCCN)C(=O)O` (H-VAAAK-OH): the Log RAI was -0.1. For the molecule `CC(C)[C@H](N)C(=O)N[C@@H](C)C(=O)N[C@@H](C)C(=O)N[C@@H](Cc1c[nH]c2ccccc12)C(=O)N[C@@H](CCCCN)C(=O)O` (H-VAAWK-OH), the Log RAI was determined as 0.23. On to `CC(C)[C@H](N)C(=O)N[C@@H](C)C(=O)N[C@@H](Cc1c[nH]c2ccccc12)C(=O)N[C@@H](C)C(=O)N[C@@H](C)C(=O)O` (H-VAWAA-OH), for which the Log RAI stood at 1.43. On to `CC(C)[C@H](N)C(=O)N[C@@H](C)C(=O)N[C@@H](Cc1c[nH]c2ccccc12)C(=O)N[C@@H](C)C(=O)N[C@@H](CCCCN)C(=O)O` (H-VAWAK-OH), for which the Log RAI turned out to be 1.45. With `CC(C)[C@H](N)C(=O)N[C@@H](CCC(=O)O)C(=O)N[C@@H](C)C(=O)N[C@@H](C)C(=O)N[C@@H](CCCCN)C(=O)O` (H-VEAAK-OH) the figure was 0.51; with `CC(C)[C@H](N)C(=O)N[C@@H](CCC(=O)O)C(=O)N[C@@H](C)C(=O)N[C@@H](C)C(=O)N1CCC[C@H]1C(=O)O` (H-VEAAP-OH), 0.18; with `CC(C)[C@H](N)C(=O)N[C@@H](CCC(=O)O)C(=O)N[C@@H](C)C(=O)N[C@@H](CO)C(=O)N[C@@H](CCCCN)C(=O)O` (H-VEASK-OH), 0.2.

Take `CC(C)[C@H](N)C(=O)N[C@@H](CCC(=O)O)C(=O)N[C@@H](Cc1ccccc1)C(=O)N[C@@H](C)C(=O)N[C@@H](CCCCN)C(=O)O` (H-VEFAK-OH): the Log RAI came to 1.57. Regarding `CC(C)[C@H](N)C(=O)N[C@@H](CCC(=O)O)C(=O)NCC(=O)NCC(=O)N[C@@H](CCCCN)C(=O)O` (H-VEGGK-OH), the Log RAI is -1. In the case of `CC(C)[C@H](N)C(=O)N[C@@H](CCC(=O)O)C(=O)N[C@@H](Cc1c[nH]cn1)C(=O)N[C@@H](C)C(=O)N[C@@H](CCCCN)C(=O)O` (H-VEHAK-OH), the Log RAI came out at 1.53. With `CC(C)C[C@H](NC(=O)[C@H](CCC(=O)O)NC(=O)[C@@H](N)C(C)C)C(=O)N[C@@H](C)C(=O)N[C@@H](CCCCN)C(=O)O` (H-VELAK-OH) the figure was 0.59; with `CC(C)[C@H](N)C(=O)N[C@@H](CCC(=O)O)C(=O)N[C@@H](CO)C(=O)N[C@@H](C)C(=O)N[C@@H](CCCCN)C(=O)O` (H-VESAK-OH), 0.28; with `CC(C)[C@H](N)C(=O)N[C@@H](CCC(=O)O)C(=O)N[C@@H](CO)C(=O)N[C@@H](CO)C(=O)N[C@@H](CCCCN)C(=O)O` (H-VESSK-OH), 0. Take `CC(C)[C@H](N)C(=O)N[C@@H](CCC(=O)O)C(=O)N[C@@H](Cc1c[nH]c2ccccc12)C(=O)N[C@@H](C)C(=O)N[C@@H](CCCCN)C(=O)O` (H-VEWAK-OH): the Log RAI worked out at 2.73. With `CC(C)[C@H](N)C(=O)N[C@@H](CCC(=O)O)C(=O)N[C@@H](Cc1c[nH]c2ccccc12)C(=O)N[C@H](C(=O)N[C@@H](CCCCN)C(=O)O)C(C)C` (H-VEWVK-OH) the figure was 1.71; with `CC(C)[C@H](N)C(=O)N[C@@H](CCCCN)C(=O)N[C@@H](C)C(=O)N[C@@H](C)C(=O)N[C@@H](CCCCN)C(=O)O` (H-VKAAK-OH), 0.11. With `CC(C)[C@H](N)C(=O)N[C@@H](CCCCN)C(=O)N[C@@H](Cc1c[nH]c2ccccc12)C(=O)N[C@@H](C)C(=O)N[C@@H](C)C(=O)O` (H-VKWAA-OH), the Log RAI was 1.71.

With `CC(C)[C@H](N)C(=O)N[C@@H](CCCCN)C(=O)N[C@@H](Cc1c[nH]c2ccccc12)C(=O)N[C@@H](C)C(=O)N1CCC[C@H]1C(=O)O` (H-VKWAP-OH), the Log RAI was found to be 2.35. For the molecule `CC(C)[C@H](N)C(=O)N[C@@H](Cc1c[nH]c2ccccc12)C(=O)N[C@@H](C)C(=O)N[C@@H](C)C(=O)N[C@@H](CCCCN)C(=O)O` (H-VWAAK-OH), the Log RAI was determined as 0.04.

The values above are taken from ChEMBL document CHEMBL1123774, “Peptide quantitative structure-activity relationships, a multivariate approach” (J Med Chem, 1987).
